What was measured:
[1] = target: T1, Androgen receptor (Rattus norvegicus) (UniProt P15207); test: Relative binding affinity for rat androgen receptor compared to dihydrotestosterone (100) (n=4)
T1 sequence (whole entry): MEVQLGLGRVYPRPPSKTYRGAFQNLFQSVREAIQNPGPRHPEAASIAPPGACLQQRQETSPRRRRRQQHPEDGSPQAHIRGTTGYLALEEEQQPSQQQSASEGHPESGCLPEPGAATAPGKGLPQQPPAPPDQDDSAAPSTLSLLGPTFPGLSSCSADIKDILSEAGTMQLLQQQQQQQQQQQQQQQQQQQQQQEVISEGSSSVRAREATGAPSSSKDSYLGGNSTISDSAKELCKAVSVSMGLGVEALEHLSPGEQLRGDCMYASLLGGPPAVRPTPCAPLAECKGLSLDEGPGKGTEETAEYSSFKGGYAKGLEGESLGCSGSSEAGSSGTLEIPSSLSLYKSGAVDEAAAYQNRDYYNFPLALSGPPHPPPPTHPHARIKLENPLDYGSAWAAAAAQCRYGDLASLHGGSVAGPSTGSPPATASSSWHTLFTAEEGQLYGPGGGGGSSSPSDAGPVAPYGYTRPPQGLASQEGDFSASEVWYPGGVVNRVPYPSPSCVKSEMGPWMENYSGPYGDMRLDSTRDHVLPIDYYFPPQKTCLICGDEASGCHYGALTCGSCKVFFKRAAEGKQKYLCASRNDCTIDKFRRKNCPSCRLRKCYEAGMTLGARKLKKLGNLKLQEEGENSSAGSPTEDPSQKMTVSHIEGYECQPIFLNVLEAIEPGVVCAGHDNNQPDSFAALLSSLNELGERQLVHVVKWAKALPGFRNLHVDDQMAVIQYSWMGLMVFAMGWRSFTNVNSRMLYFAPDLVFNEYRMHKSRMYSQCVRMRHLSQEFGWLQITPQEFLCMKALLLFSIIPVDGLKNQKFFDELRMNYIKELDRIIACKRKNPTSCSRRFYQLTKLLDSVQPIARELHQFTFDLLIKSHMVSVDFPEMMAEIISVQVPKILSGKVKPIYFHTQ

[2] = target: Estrogen receptor (Rattus norvegicus) (UniProt P06211+Q62986); test: Binding affinity for estrogen receptor in rat (n=3)

Compound	Binding affinity [1]	Binding affinity [2]
C[C@H]1C[C@@]2(C)C(CC[C@@H]2O)C2C1C1CCC(=O)C=C1C[C@@H]2C (stereo partly drawn)	22	–
C[C@@H]1CC2=CC(=O)CCC2C2C1C1CC[C@H](O)[C@@]1(C)C[C@@H]2C (stereo partly drawn)	194	0.6
